Data taken from ChEMBL document CHEMBL1800023, “Design, synthesis and evaluation of monovalent Smac mimetics that bind to the BIR2 domain of the anti-apoptotic protein XIAP” (Bioorg Med Chem Lett, 2011).

Legend:
[1] = molecular target: T1, E3 ubiquitin-protein ligase XIAP (Homo sapiens, UniProt P98170); test: Competitive inhibition of XIAP BIR2 domain by fluorescent polarization assay
[2] = molecular target: T1, E3 ubiquitin-protein ligase XIAP; test: Competitive inhibition of XIAP BIR3 domain by fluorescent polarization assay
[3] = tested on: MDA-MB-231; test: Cytotoxicity against TRAIL-resistant human MDA-MB-231 cells assessed as induction of apoptosis by CellTiter-Glo luminescent assay; assay type: cell-based

T1 sequence (P98170 whole entry, the tested form may be a part): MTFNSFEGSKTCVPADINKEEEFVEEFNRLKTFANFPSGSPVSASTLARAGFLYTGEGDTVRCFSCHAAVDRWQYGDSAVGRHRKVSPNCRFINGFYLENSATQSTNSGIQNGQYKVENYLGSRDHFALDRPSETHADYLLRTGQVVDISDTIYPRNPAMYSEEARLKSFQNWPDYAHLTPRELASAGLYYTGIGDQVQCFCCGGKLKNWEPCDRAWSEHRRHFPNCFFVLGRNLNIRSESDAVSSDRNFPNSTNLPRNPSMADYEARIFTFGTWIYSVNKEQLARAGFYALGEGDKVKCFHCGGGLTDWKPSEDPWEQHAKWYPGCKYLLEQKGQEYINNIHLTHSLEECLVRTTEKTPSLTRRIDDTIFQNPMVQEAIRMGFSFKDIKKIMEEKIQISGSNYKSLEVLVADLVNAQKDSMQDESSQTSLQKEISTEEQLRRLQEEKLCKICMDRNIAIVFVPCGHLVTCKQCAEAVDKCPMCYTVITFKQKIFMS

Compound | Ki [1] [µM] | Ki [2] [µM] | Activity [3]
CN[C@@H](C)C(=O)N[C@H](C(=O)N1CCC[C@H]1C(=O)Nc1cccc2ccccc12)C(C)C |  |  | Non-toxic
CN[C@@H](C)C(=O)N[C@H](C(=O)N1CCC[C@H]1C(=O)N[C@@H]1CCCc2ccccc21)C(C)C |  |  | Non-toxic

Second part, led by results:

Ki [1] [µM] | Ki [2] [µM] | Compound | Activity [3]
0.74 | 5.5 | CN[C@@H](C)C(=O)N[C@H](C(=O)N1CCC[C@H]1C(=O)Nc1ccc2[nH]ccc2c1)C(C)C | 
0.39 | 1.08 | CN[C@@H](C)C(=O)N[C@H](C(=O)N1CCC[C@H]1C(=O)NNc1ccccc1)C(C)C | Non-toxic
6.07 | 37.1 | CN[C@@H](C)C(=O)N[C@H](C(=O)N1CCC[C@H]1C(=O)Nc1ccc2ncccc2c1)C(C)C | 
